Experimental data taken from ChEMBL document CHEMBL1201862, “PubChem BioAssay data set” (2004).
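Cells were grown in 96-well plates and exposed to each compound for 48 hours at five concentrations; endpoints were interpolated linearly between bracketing concentrations, or set to the highest concentration if not reached. GI50 = concentration required for 50% inhibition of growth.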 Active and inactive are the calls of the source. No stated cut-off is given here; in the data, active = GI50 up to about 1.1 µM and inactive = higher.

Legend:
Experiment in all cases: NCI-60 cell line screen, 48 h
SW-620 = system: SW-620
ACHN = system: ACHN
KM12 = system: KM12
A549 = system: A549
SN12C = system: SN12C
786-0 = system: 786-0
DU-145 = system: DU-145
U-251 = system: U-251
SNB-75 = system: SNB-75
EKVX = system: EKVX
Malme-3M = system: Malme-3M
TK-10 = system: TK-10
COLO 205 = system: COLO 205
MOLT-4 = system: MOLT-4
NCI-H522 = system: NCI-H522
SR = system: SR
MDA-MB-231 = system: MDA-MB-231
RXF 393 = system: RXF 393
HT-29 = system: HT-29
SF-295 = system: SF-295
NCI-H226 = system: NCI-H226
HCC 2998 = system: HCC 2998
CCRF-CEM = system: CCRF-CEM
SNB-19 = system: SNB-19
SK-OV-3 = system: SK-OV-3
MCF7 = system: MCF7
MDA-MB-435 = system: MDA-MB-435
SK-MEL-28 = system: SK-MEL-28
OVCAR-8 = system: OVCAR-8
IGROV-1 = system: IGROV-1
HL-60 = system: HL-60
OVCAR-5 = system: OVCAR-5
OVCAR-3 = system: OVCAR-3
M14 = system: M14
K562 = system: K562
PC-3 = system: PC-3
BT-549 = system: BT-549
HCT-15 = system: HCT-15
CAKI-1 = system: CAKI-1
MDA-N = system: MDA-N
SF-268 = system: SF-268
T47D = system: T47D
Hs-578T = system: Hs-578T
UACC-257 = system: UACC-257
HOP-92 = system: HOP-92
SK-MEL-2 = system: SK-MEL-2
UO-31 = system: UO-31
HCT-116 = system: HCT-116
NCI-H460 = system: NCI-H460
HOP-62 = system: HOP-62
A498 = system: A498
NCI/ADR-RES = system: NCI/ADR-RES
SK-MEL-5 = system: SK-MEL-5
LOX IMVI = system: LOX IMVI
NCI-H23 = system: NCI-H23
OVCAR-4 = system: OVCAR-4
SF-539 = system: SF-539
RPMI-8226 = system: RPMI-8226
UACC-62 = system: UACC-62
LXFL 529 = system: LXFL 529
DLD-1 = system: DLD-1
HOP-18 = system: HOP-18
SNB-78 = system: SNB-78
DMS-273 = system: DMS-273
M19-MEL = system: M19-MEL
KM-20L2 = system: KM-20L2

Measured: GI50

COC(=O)CCC(C)[C@H]1CCC2C3C(C[C@H](OC(C)=O)[C@@]21C)[C@@]1(C)CCC2(C[C@H]1C[C@H]3OC(C)=O)OOC1(CCCC1)OO2 (stereo not given in full)
27.5 µM: HCT-15
inactive: SW-620 51.9 µM | ACHN 10.4 µM | KM12 23.3 µM | A549 12.9 µM | SN12C 42.5 µM | 786-0 29.6 µM | DU-145 27 µM | U-251 8.93 µM | SNB-75 96.4 µM | EKVX 11.1 µM | Malme-3M > 100 µM | TK-10 48.3 µM | COLO 205 30.4 µM | MOLT-4 4.28 µM | NCI-H522 23.4 µM | SR 3.02 µM | MDA-MB-231 43.3 µM | RXF 393 63.1 µM | HT-29 34.4 µM | SF-295 83.6 µM | NCI-H226 27.9 µM | HCC 2998 > 100 µM | CCRF-CEM 7.89 µM | SNB-19 > 100 µM | SK-OV-3 > 100 µM | MCF7 31.5 µM | MDA-MB-435 29.9 µM | SK-MEL-28 > 100 µM | OVCAR-8 34.4 µM | IGROV-1 5.6 µM | HL-60 5.02 µM | OVCAR-5 > 100 µM | OVCAR-3 5.56 µM | M14 > 100 µM | K562 6.3 µM | PC-3 4.47 µM | BT-549 46 µM | CAKI-1 12.2 µM | MDA-N 32.4 µM | SF-268 25.6 µM | T47D 7.19 µM | Hs-578T 16.5 µM | UACC-257 39.2 µM | HOP-92 9.62 µM | SK-MEL-2 > 100 µM | UO-31 10.1 µM | HCT-116 6.43 µM | NCI-H460 6.82 µM | HOP-62 10.3 µM | A498 > 100 µM | NCI/ADR-RES 84.5 µM | SK-MEL-5 20.2 µM | LOX IMVI 7 µM | NCI-H23 9.18 µM | OVCAR-4 12.6 µM | SF-539 > 100 µM | RPMI-8226 2.47 µM

Cc1csc(CCC(N)C(=O)O)n1 (stereo not given)
inactive: SW-620 > 100 µM | ACHN > 100 µM | KM12 > 100 µM | A549 > 100 µM | SN12C > 100 µM | 786-0 > 100 µM | UACC-62 > 100 µM | U-251 > 100 µM | SNB-75 > 100 µM | EKVX > 100 µM | Malme-3M > 100 µM | TK-10 > 100 µM | COLO 205 > 100 µM | MOLT-4 > 100 µM | NCI-H522 > 100 µM | LXFL 529 > 100 µM | RXF 393 > 100 µM | HT-29 > 100 µM | SF-295 > 100 µM | NCI-H226 > 100 µM | HCC 2998 > 100 µM | CCRF-CEM > 100 µM | SK-OV-3 > 100 µM | SK-MEL-28 > 100 µM | OVCAR-8 > 100 µM | IGROV-1 > 100 µM | DLD-1 > 100 µM | OVCAR-3 > 100 µM | M14 > 100 µM | K562 > 100 µM | HOP-18 > 100 µM | SNB-78 > 100 µM | CAKI-1 > 100 µM | DMS-273 > 100 µM | UACC-257 > 100 µM | HOP-92 > 100 µM | UO-31 > 100 µM | HCT-116 > 100 µM | NCI-H460 > 100 µM | M19-MEL > 100 µM | SK-MEL-5 > 100 µM | LOX IMVI > 100 µM | NCI-H23 > 100 µM | SF-539 > 100 µM | RPMI-8226 > 100 µM
> 100 µM: HCT-15

C[N+](C)(C)c1ncnc2c1ncn2C1CC(O)C(CO)O1 (stereo not given)
> 100 µM: HCT-15
inactive: SW-620 > 100 µM | ACHN > 100 µM | KM12 > 100 µM | A549 > 100 µM | SN12C > 100 µM | 786-0 > 100 µM | DU-145 > 100 µM | UACC-62 > 100 µM | U-251 > 100 µM | SNB-75 > 100 µM | EKVX > 100 µM | Malme-3M > 100 µM | TK-10 > 100 µM | COLO 205 > 100 µM | MOLT-4 > 100 µM | NCI-H522 > 100 µM | SR > 100 µM | MDA-MB-231 > 100 µM | RXF 393 > 100 µM | HT-29 > 100 µM | SF-295 > 100 µM | NCI-H226 > 100 µM | HCC 2998 > 100 µM | CCRF-CEM > 100 µM | SNB-19 > 100 µM | SK-OV-3 > 100 µM | MCF7 > 100 µM | MDA-MB-435 > 100 µM | SK-MEL-28 > 100 µM | OVCAR-8 > 100 µM | IGROV-1 > 100 µM | HL-60 > 100 µM | OVCAR-5 > 100 µM | OVCAR-3 > 100 µM | M14 > 100 µM | K562 > 100 µM | PC-3 > 100 µM | BT-549 > 100 µM | CAKI-1 > 100 µM | MDA-N > 100 µM | SF-268 > 100 µM | T47D > 100 µM | Hs-578T > 100 µM | UACC-257 > 100 µM | HOP-92 > 100 µM | SK-MEL-2 > 100 µM | UO-31 > 100 µM | HCT-116 > 100 µM | NCI-H460 > 100 µM | HOP-62 > 100 µM | A498 > 100 µM | NCI/ADR-RES > 100 µM | SK-MEL-5 > 100 µM | LOX IMVI > 100 µM | NCI-H23 > 100 µM | OVCAR-4 > 100 µM | SF-539 > 100 µM | RPMI-8226 > 100 µM

CCCCCCC1NN(C(C)=O)C(CCCCCC)NN1C(C)=O (stereo not given)
> 100 µM: HCT-15
inactive: SW-620 20.4 µM | KM-20L2 > 100 µM | ACHN > 100 µM | KM12 > 100 µM | SN12C > 100 µM | 786-0 > 100 µM | UACC-62 > 100 µM | U-251 > 100 µM | SNB-75 > 100 µM | EKVX > 100 µM | Malme-3M > 100 µM | TK-10 > 100 µM | COLO 205 > 100 µM | MOLT-4 > 100 µM | NCI-H522 > 100 µM | LXFL 529 > 100 µM | HT-29 > 100 µM | SF-295 > 100 µM | NCI-H226 > 100 µM | HCC 2998 > 100 µM | CCRF-CEM 42.2 µM | SNB-19 > 100 µM | SK-OV-3 > 100 µM | OVCAR-8 > 100 µM | IGROV-1 > 100 µM | DLD-1 52.1 µM | HL-60 46.5 µM | OVCAR-5 > 100 µM | OVCAR-3 > 100 µM | M14 > 100 µM | K562 32 µM | HOP-18 > 100 µM | CAKI-1 > 100 µM | DMS-273 > 100 µM | UACC-257 > 100 µM | HOP-92 > 100 µM | SK-MEL-2 > 100 µM | UO-31 > 100 µM | HCT-116 > 100 µM | NCI-H460 17.7 µM | HOP-62 > 100 µM | M19-MEL > 100 µM | SK-MEL-5 > 100 µM | LOX IMVI 19.9 µM | NCI-H23 > 100 µM | OVCAR-4 > 100 µM | SF-539 > 100 µM | RPMI-8226 24 µM

CCOC(=O)/C(C#N)=C1/Sc2c(ncn(/N=C/c3ccc(OC)cc3)c2=O)N1c1ccccc1
inactive: SW-620 > 100 µM | ACHN > 100 µM | KM12 > 100 µM | A549 67.8 µM | UACC-62 31.1 µM | U-251 37.4 µM | TK-10 50.2 µM | COLO 205 > 100 µM | MOLT-4 > 100 µM | NCI-H522 25.4 µM | LXFL 529 41.1 µM | SR > 100 µM | HT-29 70.6 µM | SF-295 19.1 µM | NCI-H226 36.1 µM | HCC 2998 > 100 µM | CCRF-CEM > 100 µM | SNB-19 33.5 µM | SK-OV-3 40.4 µM | SK-MEL-28 28.7 µM | OVCAR-8 40.6 µM | IGROV-1 56.2 µM | DLD-1 > 100 µM | HL-60 > 100 µM | OVCAR-3 41.4 µM | K562 62.5 µM | SF-268 14.8 µM | UACC-257 29.2 µM | HOP-92 13.9 µM | UO-31 > 100 µM | HCT-116 > 100 µM | NCI-H460 28.9 µM | HOP-62 22.2 µM | M19-MEL 74 µM | SK-MEL-5 > 100 µM | NCI-H23 54.8 µM | SF-539 14.8 µM | RPMI-8226 > 100 µM
